In ChEMBL document CHEMBL1201862, “PubChem BioAssay data set” (2004):
Active and inactive are the calls of the source.

Legend:
[1] = target: T1, Eukaryotic translation initiation factor 2-alpha kinase 3 (Homo sapiens, UniProt Q9NZJ5); experiment: Dose response cell-based high-throughput screening assay to measure PERK inhibition. [Related pubchem assays: 1416 ]; format: functional
T1 sequence (Q9NZJ5 whole entry): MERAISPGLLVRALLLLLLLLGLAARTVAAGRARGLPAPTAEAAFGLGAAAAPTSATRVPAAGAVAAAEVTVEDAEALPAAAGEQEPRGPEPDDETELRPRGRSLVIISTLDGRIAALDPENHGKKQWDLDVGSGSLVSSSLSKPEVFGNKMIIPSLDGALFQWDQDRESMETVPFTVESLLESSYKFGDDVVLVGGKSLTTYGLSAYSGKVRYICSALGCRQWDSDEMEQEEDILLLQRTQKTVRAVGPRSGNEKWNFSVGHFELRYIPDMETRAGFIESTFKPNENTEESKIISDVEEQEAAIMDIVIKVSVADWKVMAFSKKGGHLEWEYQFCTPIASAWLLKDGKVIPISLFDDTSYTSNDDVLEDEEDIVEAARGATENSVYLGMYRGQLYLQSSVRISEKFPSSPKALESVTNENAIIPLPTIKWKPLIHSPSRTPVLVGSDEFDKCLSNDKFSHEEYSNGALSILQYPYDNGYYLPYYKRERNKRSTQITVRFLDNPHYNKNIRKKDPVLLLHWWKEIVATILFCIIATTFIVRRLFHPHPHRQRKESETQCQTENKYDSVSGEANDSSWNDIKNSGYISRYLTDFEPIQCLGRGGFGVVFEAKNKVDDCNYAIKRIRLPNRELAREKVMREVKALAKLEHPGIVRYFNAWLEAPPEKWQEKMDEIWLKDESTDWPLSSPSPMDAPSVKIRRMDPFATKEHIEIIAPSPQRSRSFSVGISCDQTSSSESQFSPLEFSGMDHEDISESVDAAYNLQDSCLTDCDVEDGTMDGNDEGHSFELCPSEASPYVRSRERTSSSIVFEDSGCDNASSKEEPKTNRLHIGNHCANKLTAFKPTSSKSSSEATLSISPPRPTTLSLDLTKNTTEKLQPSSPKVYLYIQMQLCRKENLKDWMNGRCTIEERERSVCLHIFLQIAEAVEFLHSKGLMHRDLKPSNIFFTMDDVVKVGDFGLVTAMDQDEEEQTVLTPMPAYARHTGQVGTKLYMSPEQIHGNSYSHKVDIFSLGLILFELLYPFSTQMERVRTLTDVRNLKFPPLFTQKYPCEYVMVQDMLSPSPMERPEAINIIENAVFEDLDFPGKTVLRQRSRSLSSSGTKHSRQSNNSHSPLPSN

[2] = target: T1, Eukaryotic translation initiation factor 2-alpha kinase 3; experiment: Counterscreen assay for PERK inhibitors: Dose response cell-based high throughput screening assay to measure inhibition of PERK at 6 hours. [Related pubchem assays: 1522, 1416 ]; format: functional
Bcl-2-related protein A1 = target: T2, Bcl-2-related protein A1 (Mus musculus, UniProt Q07440); format: functional;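 also: confirmatory dose–response counterscreen on Bfl-1, used to check hits from a UBC13 polyubiquitin inhibitor campaign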
T2 sequence (Q07440 whole entry): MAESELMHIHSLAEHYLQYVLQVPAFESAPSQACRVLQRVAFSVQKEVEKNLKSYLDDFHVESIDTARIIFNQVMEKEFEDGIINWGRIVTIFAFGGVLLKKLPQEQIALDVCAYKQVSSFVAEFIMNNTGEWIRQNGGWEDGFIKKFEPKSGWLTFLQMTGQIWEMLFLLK

[3] = target: T3, Ubiquitin-conjugating enzyme E2 N (Homo sapiens, UniProt P61088); format: functional
T3 sequence (P61088 whole entry): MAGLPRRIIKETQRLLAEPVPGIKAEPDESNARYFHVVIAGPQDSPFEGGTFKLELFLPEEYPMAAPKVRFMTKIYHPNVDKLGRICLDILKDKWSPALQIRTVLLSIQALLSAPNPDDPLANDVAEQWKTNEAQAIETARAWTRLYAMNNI

[4] = target: T3, Ubiquitin-conjugating enzyme E2 N; format: functional; remark: listed apart in the source
[5] = target: T4, Acyl-homoserine lactone acylase PvdQ (Pseudomonas aeruginosa (strain LESB58), UniProt Q9I194); experiment: P. aeruginosa PvdQ acylase inhibitors, dose response, biochemical, fluorescence, plate reader and imaging, cherry-picks (AID 493231)
T4 sequence (Q9I194 whole entry): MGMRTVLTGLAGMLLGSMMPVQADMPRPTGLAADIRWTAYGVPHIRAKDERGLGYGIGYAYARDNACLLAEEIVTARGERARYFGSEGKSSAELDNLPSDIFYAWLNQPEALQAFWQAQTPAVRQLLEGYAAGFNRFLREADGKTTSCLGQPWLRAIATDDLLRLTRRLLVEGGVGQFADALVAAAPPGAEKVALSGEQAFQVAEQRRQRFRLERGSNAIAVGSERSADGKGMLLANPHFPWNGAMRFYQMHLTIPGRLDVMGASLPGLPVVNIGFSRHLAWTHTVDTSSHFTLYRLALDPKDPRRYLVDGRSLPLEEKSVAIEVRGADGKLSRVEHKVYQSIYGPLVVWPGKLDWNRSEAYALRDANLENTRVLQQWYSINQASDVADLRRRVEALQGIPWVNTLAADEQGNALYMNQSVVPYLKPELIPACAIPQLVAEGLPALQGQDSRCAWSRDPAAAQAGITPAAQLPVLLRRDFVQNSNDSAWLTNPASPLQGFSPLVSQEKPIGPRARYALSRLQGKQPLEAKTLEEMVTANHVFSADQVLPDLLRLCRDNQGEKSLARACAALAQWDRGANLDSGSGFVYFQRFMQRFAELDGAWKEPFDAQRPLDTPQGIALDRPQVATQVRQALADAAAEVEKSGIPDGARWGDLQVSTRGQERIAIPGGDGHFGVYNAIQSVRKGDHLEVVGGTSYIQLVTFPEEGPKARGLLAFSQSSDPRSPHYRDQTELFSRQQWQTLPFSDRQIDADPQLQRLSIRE

[6] = target: DNA dC->dU-editing enzyme APOBEC-3G (Homo sapiens, UniProt Q9HC16); experiment: Dose Response confirmation of small molecule APOBEC3G DNA Deaminase Inhibitors via a fluorescence-based single-stranded DNA deaminase assay. [Related pubchem assays (depositor defined):AID493012, AID493028]; format: functional
[7] = A cytotoxicity screen of small molecule inhibitors of the PhoP region in Salmonella typhi identified in the primary screen. [Related pubchem assays: 1850, 1864, 1985 ]; format: functional
[8] = target: T5, Replicative DNA helicase DnaB (Mycobacterium tuberculosis, UniProt P9WMR3); experiment: DnaB intein splicing inhibitors, dose response, biochemical, cell-free fluorescence (AID 449749); format: functional
T5 sequence (P9WMR3 whole entry): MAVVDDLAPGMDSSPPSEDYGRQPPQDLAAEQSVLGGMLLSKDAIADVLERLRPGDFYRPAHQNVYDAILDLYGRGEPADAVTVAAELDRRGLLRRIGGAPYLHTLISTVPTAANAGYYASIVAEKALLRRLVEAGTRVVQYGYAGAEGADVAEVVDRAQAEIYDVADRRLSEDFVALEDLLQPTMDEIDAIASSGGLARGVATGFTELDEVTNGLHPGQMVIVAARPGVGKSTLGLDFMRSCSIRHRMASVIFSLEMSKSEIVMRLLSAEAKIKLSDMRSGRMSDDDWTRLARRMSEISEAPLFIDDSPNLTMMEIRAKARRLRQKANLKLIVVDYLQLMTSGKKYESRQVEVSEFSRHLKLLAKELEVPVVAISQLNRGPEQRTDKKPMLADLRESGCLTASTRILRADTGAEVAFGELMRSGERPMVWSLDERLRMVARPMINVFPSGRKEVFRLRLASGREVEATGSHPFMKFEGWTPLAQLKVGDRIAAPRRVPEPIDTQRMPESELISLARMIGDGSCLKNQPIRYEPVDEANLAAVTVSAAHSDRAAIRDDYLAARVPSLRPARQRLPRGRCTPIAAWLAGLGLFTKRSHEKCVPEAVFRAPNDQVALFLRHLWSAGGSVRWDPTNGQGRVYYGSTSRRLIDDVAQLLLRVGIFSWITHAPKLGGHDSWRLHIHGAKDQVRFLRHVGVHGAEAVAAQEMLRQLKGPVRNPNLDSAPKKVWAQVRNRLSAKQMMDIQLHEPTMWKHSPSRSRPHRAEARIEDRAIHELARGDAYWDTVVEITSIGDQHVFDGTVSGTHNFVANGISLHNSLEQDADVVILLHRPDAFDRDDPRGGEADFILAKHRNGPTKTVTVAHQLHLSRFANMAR

Protein RecA = target: T6, Protein RecA (Mycobacterium tuberculosis, UniProt P9WHJ3); experiment: Fluorescence Cell-Free Homogeneous Dose Retest to Identify Inhibitors of RecA-Intein Splicing Activity. [Related pubchem assays (depositor defined):AID2097, AID2223, AID489010, AID492950]; format: functional
T6 sequence (P9WHJ3 whole entry): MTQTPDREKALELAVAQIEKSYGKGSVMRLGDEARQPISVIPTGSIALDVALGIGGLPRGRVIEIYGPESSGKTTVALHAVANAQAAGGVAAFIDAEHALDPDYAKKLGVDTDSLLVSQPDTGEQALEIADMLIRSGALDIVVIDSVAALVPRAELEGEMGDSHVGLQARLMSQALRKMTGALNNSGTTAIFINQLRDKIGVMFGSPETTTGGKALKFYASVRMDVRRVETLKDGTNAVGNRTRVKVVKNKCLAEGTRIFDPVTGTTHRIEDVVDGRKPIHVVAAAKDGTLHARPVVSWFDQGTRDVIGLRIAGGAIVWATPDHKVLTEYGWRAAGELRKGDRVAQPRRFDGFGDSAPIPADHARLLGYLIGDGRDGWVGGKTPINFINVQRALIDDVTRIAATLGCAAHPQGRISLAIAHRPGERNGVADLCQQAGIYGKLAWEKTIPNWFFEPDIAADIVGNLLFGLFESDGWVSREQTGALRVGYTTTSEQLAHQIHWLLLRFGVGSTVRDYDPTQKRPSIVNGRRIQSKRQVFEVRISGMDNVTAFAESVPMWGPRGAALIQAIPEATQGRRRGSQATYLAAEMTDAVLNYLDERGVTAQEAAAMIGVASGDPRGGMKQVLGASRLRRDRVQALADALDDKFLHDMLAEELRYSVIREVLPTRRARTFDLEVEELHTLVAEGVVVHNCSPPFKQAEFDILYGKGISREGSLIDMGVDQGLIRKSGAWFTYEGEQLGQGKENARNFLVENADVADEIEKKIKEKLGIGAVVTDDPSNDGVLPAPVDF

Cytochrome P450 2C19 = Cytochrome P450 2C19 (Homo sapiens, UniProt P33261); experiment: Cytochrome panel assay with activity outcomes. Panel member name: p450-cyp2c19 Compounds with AC50 equal or less than 10 uM are considered active; format: functional
Genome polyprotein = Genome polyprotein (dengue virus type 2, UniProt P29990); experiment: Dengue-2 NS5 methyltransferase inhibitors, primary screen, biochemical, confirmation dose response (AID 588689); format: functional
[9] = target: Neurotensin receptor type 1 (Homo sapiens, UniProt P30989); format: functional;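 also: Image-based confirmatory dose-response assay measuring agonist activity at NTR1; NTR1-expressing U2OS osteosarcoma cells imaged for beta-arrestin GFP spot formation; agonist potency where compounds increase beta-arrestin recruitment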
[10] = target: Induced myeloid leukemia cell differentiation protein Mcl-1 (Homo sapiens, UniProt Q07820); format: functional
[11] = target: T7, Carboxy-terminal domain RNA polymerase II polypeptide A small phosphatase 1 (Homo sapiens, UniProt Q9GZU7); experiment: inhibitors of CTDSP1, concentration-response testing, biochemical assay, absorbance-based, actives from ultra-high-throughput screening (AID 540297); format: functional
T7 sequence (Q9GZU7 whole entry): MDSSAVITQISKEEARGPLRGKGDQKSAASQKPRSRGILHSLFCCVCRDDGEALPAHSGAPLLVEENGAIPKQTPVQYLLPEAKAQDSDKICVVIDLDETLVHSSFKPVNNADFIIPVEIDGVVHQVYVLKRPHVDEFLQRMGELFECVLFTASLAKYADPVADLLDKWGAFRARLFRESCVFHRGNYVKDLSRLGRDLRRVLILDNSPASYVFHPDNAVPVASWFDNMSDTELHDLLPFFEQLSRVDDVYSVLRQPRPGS

[12] = target: Eukaryotic translation initiation factor 4E (Mus musculus, UniProt P63073); experiment: eIF4E–eIF4G protein interaction inhibitors, dose response, biochemical, TR-FRET (AID 855); format: functional;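 also: potency for disrupting eIF4E binding to eIF4GI seen as loss of FRET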
[13] = target: T8, Voltage-gated N-type calcium channel alpha-1B subunit/Amyloid beta A4 precursor protein-binding family A member 1 (Homo sapiens, UniProt Q00975+Q02410); format: protein assay
[14] = target: T8, Voltage-gated N-type calcium channel alpha-1B subunit/Amyloid beta A4 precursor protein-binding family A member 1; format: protein assay; remark: listed apart in the source

T8 sequence (Q00975 whole entry): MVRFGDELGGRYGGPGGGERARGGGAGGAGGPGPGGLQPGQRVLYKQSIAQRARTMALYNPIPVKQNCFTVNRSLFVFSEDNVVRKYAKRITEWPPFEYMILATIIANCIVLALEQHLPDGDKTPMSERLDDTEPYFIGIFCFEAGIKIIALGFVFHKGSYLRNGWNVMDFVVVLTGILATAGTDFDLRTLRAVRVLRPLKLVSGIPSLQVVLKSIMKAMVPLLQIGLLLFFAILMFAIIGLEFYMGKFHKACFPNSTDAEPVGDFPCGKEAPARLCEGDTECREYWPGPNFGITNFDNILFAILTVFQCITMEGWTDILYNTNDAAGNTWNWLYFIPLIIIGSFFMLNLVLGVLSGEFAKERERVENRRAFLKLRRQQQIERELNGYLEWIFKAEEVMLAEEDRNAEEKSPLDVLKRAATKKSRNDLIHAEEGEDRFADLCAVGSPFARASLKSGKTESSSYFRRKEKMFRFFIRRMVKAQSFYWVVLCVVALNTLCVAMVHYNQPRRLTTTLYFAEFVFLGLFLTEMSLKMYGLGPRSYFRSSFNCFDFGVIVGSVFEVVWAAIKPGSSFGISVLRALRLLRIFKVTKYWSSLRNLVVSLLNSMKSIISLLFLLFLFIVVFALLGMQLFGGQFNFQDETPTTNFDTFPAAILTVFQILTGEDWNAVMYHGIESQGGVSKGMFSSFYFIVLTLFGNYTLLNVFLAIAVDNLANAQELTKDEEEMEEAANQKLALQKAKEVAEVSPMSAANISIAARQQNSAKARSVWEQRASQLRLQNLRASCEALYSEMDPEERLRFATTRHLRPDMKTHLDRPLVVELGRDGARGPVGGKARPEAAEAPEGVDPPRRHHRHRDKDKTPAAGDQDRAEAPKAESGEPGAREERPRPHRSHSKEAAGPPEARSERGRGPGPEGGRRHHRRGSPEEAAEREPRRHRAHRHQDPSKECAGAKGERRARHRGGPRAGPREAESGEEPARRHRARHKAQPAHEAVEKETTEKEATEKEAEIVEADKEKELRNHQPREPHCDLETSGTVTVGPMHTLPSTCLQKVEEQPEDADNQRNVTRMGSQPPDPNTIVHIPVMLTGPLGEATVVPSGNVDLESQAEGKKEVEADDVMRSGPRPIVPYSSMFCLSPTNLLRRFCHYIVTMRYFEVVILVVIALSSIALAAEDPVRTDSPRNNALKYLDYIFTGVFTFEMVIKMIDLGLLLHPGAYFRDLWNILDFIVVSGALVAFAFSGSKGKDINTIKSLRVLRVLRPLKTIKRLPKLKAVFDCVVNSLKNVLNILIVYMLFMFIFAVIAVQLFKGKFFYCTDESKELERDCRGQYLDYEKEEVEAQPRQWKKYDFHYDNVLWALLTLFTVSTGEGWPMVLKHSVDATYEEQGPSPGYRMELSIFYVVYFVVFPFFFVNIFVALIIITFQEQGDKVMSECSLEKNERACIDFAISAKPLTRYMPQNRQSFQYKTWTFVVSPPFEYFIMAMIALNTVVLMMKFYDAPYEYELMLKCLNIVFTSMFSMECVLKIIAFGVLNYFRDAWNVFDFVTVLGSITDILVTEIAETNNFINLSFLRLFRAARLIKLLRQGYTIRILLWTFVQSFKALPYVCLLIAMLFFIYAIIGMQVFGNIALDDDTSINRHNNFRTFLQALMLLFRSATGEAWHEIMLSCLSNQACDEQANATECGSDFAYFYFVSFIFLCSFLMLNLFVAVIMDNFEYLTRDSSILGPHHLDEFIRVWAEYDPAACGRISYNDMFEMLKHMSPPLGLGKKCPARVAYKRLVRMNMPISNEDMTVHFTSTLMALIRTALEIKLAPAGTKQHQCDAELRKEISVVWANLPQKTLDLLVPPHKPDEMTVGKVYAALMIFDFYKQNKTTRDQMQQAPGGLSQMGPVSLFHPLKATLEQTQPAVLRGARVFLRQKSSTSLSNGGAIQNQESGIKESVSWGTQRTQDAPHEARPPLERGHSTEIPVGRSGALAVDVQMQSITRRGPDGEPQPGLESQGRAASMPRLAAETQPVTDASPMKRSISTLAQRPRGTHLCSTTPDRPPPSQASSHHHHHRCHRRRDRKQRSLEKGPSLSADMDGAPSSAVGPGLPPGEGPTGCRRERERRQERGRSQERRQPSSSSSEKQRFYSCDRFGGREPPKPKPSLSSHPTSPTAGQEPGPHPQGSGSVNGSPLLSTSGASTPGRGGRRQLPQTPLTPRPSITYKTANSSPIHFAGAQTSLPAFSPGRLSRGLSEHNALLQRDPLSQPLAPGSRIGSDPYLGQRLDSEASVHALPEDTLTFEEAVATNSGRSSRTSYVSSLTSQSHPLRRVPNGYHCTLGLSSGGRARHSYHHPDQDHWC
T8 sequence (Q02410 whole entry): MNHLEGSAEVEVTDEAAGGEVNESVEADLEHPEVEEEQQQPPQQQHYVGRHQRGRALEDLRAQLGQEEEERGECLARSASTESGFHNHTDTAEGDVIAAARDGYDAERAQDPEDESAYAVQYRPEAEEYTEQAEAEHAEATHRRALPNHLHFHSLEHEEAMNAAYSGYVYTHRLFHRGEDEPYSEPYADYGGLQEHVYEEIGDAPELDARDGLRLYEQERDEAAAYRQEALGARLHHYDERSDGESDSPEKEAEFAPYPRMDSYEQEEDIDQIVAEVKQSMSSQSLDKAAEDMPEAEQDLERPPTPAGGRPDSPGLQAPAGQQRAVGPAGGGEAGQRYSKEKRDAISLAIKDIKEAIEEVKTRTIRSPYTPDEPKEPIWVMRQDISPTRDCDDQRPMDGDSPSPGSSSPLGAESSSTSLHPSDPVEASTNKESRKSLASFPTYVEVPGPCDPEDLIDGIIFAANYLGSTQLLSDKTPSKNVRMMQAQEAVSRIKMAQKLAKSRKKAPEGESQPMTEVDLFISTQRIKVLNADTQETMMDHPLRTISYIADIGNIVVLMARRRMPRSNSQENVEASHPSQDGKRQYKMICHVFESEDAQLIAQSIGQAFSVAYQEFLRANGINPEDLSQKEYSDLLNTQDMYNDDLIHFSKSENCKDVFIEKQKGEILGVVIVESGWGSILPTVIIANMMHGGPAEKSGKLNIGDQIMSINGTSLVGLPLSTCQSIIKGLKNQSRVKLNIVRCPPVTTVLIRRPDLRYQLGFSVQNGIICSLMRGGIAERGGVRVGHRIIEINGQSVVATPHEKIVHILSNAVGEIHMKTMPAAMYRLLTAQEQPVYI
Chain of DNA dC->dU-editing enzyme APOBEC-3G (Q9HC16 whole entry): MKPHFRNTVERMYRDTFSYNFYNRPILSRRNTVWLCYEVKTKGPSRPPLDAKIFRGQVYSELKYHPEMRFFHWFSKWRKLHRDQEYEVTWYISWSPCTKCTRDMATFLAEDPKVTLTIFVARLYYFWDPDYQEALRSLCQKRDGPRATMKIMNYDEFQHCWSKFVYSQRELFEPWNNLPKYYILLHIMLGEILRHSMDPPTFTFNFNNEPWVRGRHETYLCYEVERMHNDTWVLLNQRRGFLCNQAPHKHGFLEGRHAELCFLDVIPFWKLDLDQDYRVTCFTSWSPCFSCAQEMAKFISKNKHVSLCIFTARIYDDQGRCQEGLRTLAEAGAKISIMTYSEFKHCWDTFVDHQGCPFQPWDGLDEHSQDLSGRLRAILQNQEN
Chain of Eukaryotic translation initiation factor 4E (P63073 whole entry): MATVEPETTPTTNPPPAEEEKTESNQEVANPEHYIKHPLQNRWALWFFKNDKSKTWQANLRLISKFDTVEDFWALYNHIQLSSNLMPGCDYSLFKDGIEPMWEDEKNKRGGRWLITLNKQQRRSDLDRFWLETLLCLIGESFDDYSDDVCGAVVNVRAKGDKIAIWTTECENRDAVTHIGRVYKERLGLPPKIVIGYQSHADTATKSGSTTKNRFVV
Chain of Cytochrome P450 2C19 (P33261 whole entry): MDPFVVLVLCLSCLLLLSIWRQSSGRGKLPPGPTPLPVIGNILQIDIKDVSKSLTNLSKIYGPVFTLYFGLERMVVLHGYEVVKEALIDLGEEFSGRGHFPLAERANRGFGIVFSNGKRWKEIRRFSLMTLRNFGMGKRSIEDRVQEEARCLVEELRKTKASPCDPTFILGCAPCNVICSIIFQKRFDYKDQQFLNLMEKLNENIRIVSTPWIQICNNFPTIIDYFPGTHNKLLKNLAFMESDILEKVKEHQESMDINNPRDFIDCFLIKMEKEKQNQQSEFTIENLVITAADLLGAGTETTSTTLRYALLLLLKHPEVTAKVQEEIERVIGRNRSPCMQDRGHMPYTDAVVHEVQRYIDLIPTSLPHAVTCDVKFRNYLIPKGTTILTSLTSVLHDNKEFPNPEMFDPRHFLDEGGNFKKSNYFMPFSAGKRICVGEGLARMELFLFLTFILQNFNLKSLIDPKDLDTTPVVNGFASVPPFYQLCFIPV
Chain of Neurotensin receptor type 1 (P30989 whole entry): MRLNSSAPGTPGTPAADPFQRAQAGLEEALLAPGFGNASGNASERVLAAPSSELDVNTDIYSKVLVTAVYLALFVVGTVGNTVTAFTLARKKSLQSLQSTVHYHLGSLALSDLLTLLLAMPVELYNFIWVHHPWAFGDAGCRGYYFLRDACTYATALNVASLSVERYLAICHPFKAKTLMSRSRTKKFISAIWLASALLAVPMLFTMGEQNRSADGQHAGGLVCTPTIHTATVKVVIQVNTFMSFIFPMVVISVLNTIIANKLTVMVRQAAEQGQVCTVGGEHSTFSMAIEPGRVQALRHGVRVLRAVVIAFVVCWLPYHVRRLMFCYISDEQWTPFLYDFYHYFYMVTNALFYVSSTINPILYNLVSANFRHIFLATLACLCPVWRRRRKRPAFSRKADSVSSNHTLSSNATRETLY
Chain of Induced myeloid leukemia cell differentiation protein Mcl-1 (Q07820 whole entry, the tested form may be a part): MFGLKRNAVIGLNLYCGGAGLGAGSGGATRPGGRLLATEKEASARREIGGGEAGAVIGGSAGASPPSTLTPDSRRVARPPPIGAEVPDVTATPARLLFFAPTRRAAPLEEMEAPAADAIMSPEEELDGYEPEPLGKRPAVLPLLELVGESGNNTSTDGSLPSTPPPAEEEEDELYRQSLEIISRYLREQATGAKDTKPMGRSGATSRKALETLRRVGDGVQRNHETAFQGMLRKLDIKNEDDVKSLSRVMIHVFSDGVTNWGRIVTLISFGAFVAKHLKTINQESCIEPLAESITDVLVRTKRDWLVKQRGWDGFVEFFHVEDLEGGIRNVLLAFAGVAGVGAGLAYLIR

## O=C(NC(=S)Nc1ccc2oc(=O)ccc2c1)c1ccccc1F
[1]
  EC50: > 55.7 µM (not active)
[2]
  EC50: > 55.7 µM (not active)

## CC(C)N(C(=O)/C=C/c1cccc([N+](=O)[O-])c1)C(C)C
[1]
  EC50: > 55.7 µM (not active)
[2]
  EC50: > 55.7 µM (not active)

## CCOC(=O)c1cc(-c2ccc(OC)cc2)nc2c1c(C)nn2CCC#N
Bcl-2-related protein A1
  IC50: > 20 µM (inactive)
[3]
  IC50: 6.8 µM (active)
[4]
  IC50: 15 µM (active)

## Cc1ccc(S(=O)(=O)NCCC(C)C)cc1[N+](=O)[O-]
[5]
  AC50: 12.5 µM (active)

## Sc1nnc(-c2ccco2)n1/N=C/c1ccccn1
[6]
  IC50: 9.12 µM (active)

## NC1=NC(=Nc2cccc(S(N)(=O)=O)c2)c2ccccc21
[1]
  EC50: > 55.7 µM (not active)
[2]
  EC50: > 55.7 µM (not active)

## CCOc1ccc(-c2nc(S(=O)(=O)c3ccccc3)c(NC)o2)cc1
Bcl-2-related protein A1
  IC50: > 20 µM (inactive)
[3]
  IC50: > 20 µM (inactive)
[4]
  IC50: 19 µM (active)

## COc1cccc(C(c2c(C)[nH]n(-c3ccccc3)c2=O)c2c(C)[nH]n(-c3ccccc3)c2=O)c1O
[7]
  EC50: > 50 µM (active)
[8]
  AC50: 1.18 µM (active)
Protein RecA
  EC50: 0.829 µM (active)
Cytochrome P450 2C19
  AC50: inconclusive
Genome polyprotein
  IC50: 38.8 µM (active)

## N#CN(Cc1ccccc1)Cc1ccccc1
[5]
  AC50: 1.6 µM (active)

## COc1cc2c(cc1OC)C(SC)=NC(C)(C)C2
[9]
  EC50: 9.39 µM (active)

## Cc1cc(NC(=O)c2cc([N+](=O)[O-])cc([N+](=O)[O-])c2C)no1
[5]
  AC50: 3.11 µM (active)

## CC(=O)c1ccc(NC(=O)CSc2ccsc2[N+](=O)[O-])cc1
[10]
  IC50: < 0.4 µM (not active)
[11]
  IC50: 3.83 µM (active)
[12]
  IC50: 50 µM (inactive)
[13]
  IC50: 48.2 µM (active)
[14]
  IC50: 6 µM (active)
